Results reported in PMC5656517 (European journal of pharmaceutical sciences : official …, 2017).
Values after ≈ are worked out from the molar mass of the structure shown. Where two headings read alike, the source gives them in different places.

Assays:
[1] = target: CYP3A4 (midazolam) (Homo sapiens, UniProt P08684); test: KI and kinact determination in human liver microsomes; assay type: in vitro ADME
[2] = target: T1, CYP3A4 (Homo sapiens, UniProt P08684); test: KI and kinact determination with recombinant CYP3A4; assay type: in vitro ADME
Target sequence in this assay (P08684 2-503 limits assumed): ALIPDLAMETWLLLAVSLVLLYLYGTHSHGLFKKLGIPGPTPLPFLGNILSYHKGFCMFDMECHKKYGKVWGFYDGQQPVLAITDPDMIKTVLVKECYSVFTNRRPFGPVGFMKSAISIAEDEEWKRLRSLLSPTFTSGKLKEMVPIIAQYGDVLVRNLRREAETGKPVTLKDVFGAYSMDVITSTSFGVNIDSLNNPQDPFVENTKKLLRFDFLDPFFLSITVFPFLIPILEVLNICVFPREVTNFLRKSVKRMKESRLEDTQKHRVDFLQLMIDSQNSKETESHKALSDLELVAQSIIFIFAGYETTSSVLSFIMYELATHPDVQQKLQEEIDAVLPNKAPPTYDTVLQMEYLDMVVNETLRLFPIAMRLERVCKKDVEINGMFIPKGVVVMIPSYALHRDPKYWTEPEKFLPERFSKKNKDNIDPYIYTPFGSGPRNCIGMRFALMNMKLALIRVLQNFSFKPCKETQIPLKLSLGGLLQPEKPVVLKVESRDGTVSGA

[3] = target: T1, CYP3A4; test: Effect of washing to restore CYP3A4 activity, recombinant CYP3A4; assay type: in vitro ADME; conditions: recombinant CYP3A4, 10 µM, 30 min preincubation, washed 3 times, midazolam
Target sequence in this assay (P08684 2-503 limits assumed): as above

[4] = target: T1, CYP3A4; assay type: in vitro ADME; conditions: human liver microsomes, 100 µM
Target sequence in this assay (P08684 whole entry): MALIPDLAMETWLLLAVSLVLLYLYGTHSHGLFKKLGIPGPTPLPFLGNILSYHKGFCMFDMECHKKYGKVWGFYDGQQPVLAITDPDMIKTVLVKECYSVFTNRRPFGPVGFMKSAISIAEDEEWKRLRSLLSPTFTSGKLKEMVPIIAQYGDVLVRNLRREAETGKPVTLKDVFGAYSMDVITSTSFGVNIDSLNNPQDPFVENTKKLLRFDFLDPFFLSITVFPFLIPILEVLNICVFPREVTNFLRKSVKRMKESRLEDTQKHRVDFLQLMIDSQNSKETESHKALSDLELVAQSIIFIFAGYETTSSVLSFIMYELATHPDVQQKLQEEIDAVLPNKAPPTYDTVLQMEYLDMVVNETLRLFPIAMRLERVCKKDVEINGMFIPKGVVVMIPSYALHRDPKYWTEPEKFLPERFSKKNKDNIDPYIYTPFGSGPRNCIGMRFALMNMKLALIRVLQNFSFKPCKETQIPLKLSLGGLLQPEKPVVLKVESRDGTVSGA

[5] = target: T1, CYP3A4; assay type: in vitro ADME; conditions: recombinant human CYP3A4, 20 µM
Target sequence in this assay (P08684 2-503 limits assumed): as the sequence (P08684 2-503 limits assumed) above

[6] = target: T2, CYP2C19 (Homo sapiens, UniProt P33261); conditions: human liver microsomes, substrate (S)-mephenytoin, mean ± standard deviation
[7] = test system: CYP2C; conditions: ref He et al. (2015); cited from earlier work
[8] = test system: CYP3A4 (testosterone); conditions: ref He et al. (2015); cited from earlier work
[9] = target: CYP2C9 (Homo sapiens, UniProt P11712); test: Single concentration; conditions: human liver microsomes
[10] = target: T2, CYP2C19; test: Single concentration; conditions: human liver microsomes
[11] = target: T3, CYP2A6 (Homo sapiens, UniProt P11509); test: Cocktail assay IC50 determination in human liver microsomes; conditions: substrate coumarin
T3 sequence (P11509 1-494): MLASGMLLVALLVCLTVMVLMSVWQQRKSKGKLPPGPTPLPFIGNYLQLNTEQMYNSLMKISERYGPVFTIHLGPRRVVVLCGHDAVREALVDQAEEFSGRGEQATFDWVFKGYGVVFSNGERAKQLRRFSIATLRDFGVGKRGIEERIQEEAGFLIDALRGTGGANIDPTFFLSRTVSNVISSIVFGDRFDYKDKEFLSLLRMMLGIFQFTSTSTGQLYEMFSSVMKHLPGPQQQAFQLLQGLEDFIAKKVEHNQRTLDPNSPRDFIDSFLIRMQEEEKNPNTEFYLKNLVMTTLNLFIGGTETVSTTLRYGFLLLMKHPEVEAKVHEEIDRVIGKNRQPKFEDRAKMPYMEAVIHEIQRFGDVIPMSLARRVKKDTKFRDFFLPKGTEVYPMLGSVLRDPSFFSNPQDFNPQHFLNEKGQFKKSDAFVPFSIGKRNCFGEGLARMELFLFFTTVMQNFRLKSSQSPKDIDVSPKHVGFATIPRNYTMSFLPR

[12] = test system: cytochrome P450 enzymes; test: Single concentration; conditions: test concentration of 10 µM
[13] = target: T4, CYP2C8 (Homo sapiens, UniProt P10632); test: Cocktail assay IC50 determination in human liver microsomes; conditions: substrate amodiaquine, mean ± standard deviation
T4 sequence (P10632 1-490): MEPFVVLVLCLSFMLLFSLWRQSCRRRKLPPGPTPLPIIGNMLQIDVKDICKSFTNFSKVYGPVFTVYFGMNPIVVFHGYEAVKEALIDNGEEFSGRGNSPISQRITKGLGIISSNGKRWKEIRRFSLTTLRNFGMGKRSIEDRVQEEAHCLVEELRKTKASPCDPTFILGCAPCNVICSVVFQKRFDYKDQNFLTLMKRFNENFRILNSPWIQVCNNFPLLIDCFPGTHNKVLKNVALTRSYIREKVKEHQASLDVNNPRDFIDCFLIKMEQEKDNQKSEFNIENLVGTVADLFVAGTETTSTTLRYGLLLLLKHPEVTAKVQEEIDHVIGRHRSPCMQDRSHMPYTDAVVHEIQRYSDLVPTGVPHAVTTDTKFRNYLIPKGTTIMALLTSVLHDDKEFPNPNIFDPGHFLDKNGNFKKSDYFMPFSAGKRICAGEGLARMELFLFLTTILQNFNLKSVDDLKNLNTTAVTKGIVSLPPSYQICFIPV

[14] = target: T1, CYP3A4; test: Single point time-dependent inhibition screening assay in human liver microsomes
Target sequence in this assay (P08684 whole entry): as the sequence (P08684 whole entry) above

[15] = target: CYP2E1 (Homo sapiens, UniProt P05181); test: Cocktail assay IC50 determination in human liver microsomes; conditions: substrate chloroxazone
[16] = target: T1, CYP3A4; test: as above; conditions: mean ± standard deviation
Target sequence in this assay (P08684 whole entry): as above

[17] = NADPH, 1000 U/mL superoxide dismutase
[18] = without NADPH, mean of two experiments

CYP3A4 (midazolam), sequence (P08684 whole entry): as above
T2 sequence (P33261 whole entry): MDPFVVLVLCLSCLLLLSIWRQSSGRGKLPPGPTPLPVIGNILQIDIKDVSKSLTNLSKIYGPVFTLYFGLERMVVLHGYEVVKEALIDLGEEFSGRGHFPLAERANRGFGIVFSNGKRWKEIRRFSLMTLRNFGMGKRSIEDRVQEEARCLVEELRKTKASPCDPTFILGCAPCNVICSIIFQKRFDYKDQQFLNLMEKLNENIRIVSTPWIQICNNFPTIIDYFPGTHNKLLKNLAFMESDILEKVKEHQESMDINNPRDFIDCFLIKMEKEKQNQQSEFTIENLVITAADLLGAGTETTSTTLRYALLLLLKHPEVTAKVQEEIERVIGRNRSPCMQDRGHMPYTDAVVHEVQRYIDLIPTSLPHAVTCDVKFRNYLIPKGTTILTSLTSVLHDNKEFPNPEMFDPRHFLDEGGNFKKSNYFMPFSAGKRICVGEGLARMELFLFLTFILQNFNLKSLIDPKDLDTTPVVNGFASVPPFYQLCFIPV
CYP2C9, sequence (P11712 whole entry): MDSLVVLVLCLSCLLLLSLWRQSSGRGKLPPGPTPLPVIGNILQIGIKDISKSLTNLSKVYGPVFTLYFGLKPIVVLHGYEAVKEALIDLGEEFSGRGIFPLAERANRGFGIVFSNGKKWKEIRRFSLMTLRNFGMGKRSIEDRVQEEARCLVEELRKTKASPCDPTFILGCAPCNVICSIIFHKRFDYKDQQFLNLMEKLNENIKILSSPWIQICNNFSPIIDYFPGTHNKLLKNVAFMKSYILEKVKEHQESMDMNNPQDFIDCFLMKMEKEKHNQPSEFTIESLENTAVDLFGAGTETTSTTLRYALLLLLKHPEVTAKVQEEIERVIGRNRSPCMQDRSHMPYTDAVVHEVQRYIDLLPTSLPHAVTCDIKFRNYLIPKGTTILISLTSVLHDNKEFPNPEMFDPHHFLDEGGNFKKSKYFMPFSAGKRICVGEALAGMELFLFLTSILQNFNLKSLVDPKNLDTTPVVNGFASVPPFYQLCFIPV
CYP2E1, sequence (P05181 whole entry): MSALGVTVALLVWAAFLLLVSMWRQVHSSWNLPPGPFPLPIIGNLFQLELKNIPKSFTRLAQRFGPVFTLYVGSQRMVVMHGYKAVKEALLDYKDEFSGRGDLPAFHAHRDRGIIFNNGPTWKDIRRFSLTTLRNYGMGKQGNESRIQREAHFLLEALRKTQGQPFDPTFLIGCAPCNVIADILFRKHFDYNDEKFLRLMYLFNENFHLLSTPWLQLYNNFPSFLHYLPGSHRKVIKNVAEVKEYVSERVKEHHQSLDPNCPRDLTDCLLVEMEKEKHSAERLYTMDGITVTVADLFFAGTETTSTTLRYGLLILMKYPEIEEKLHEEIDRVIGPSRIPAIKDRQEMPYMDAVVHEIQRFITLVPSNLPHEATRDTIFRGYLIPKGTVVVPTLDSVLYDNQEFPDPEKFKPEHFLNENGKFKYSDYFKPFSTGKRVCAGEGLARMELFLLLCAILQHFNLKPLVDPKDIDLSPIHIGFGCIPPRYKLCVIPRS

SMILES: C=CC(C)(C)c1cc(/C=C/C(=O)c2ccc(O)cc2)c(OC)cc1O [Licochalcone A, licochalcone A]
- Efficiency of inactivation ([1]; human liver microsomes): 0.0033 µM⁻¹ min⁻¹
- kinact for inactivation of CYP3A4 (midazolam) ([1]; human liver microsomes): 0.38 min⁻¹
- type of CYP3A4 inhibition, conclusion in words ([1]; human liver microsomes and recombinant CYP3A4): mechanism based inhibitor
- KI (inactivation) ([1]; read-out: KI for inactivation of CYP3A4 (midazolam), human liver microsomes): 116 µM
- KI (inactivation) ([2]; read-out: KI for inactivation of CYP3A4 (midazolam), recombinant human CYP3A4): 2.22 µM
- Efficiency of inactivation ([2]; recombinant CYP3A4): 0.021 µM⁻¹ min⁻¹
- kinact for inactivation of CYP3A4 (midazolam) ([2]; recombinant human CYP3A4): 0.047 min⁻¹
- remaining enzyme activity after washing out the inhibitor [3]: 16.7%
- % Control activity ([4]; NADPH, 2 mM glutathione): 38.5%
- % Control activity ([4]; NADPH, 1000 U/mL catalase): 42.4%
- % Control activity [4, 17]: 46.9%
- % Control activity ([4]; NADPH, mean of two experiments): 49.5%
- % Control activity [4, 18]: 100%
- % Control activity ([5]; NADPH, 2 mM glutathione): 32.4%
- % Control activity ([5]; NADPH, 1000 U/mL catalase): 38.8%
- % Control activity [5, 17]: 28.1%
- % Control activity ([5]; NADPH, mean of two experiments): 42.0%
- % Control activity [5, 18]: 100%
- IC50, CYP2C19 [6]: 3.60 ± 0.79 µg/mL (≈ 10.6 µM)
- inhibition of CYP2C, in words [7]: strongly inhibited
- inhibition of CYP3A4 (testosterone), in words [8]: strongly inhibited
- inhibition of CYP2C9 at 10 µM, in words [9]: strongly inhibited
- inhibition of CYP2C19 at 10 µM, in words [10]: moderate inhibitor
- IC50, CYP2A6 [11]: >25 µg/mL
- inhibition of one or more cytochrome P450 enzymes [12]: more than 50%
- IC50, CYP2C8 [13]: 1.05 ± 0.08 µg/mL (≈ 3.1 µM)
- time-dependent inhibition of CYP3A4 (midazolam), in words [14]: demonstrated time-dependent inhibition
- IC50, CYP2E1 [15]: >25 µg/mL
- IC50, CYP3A4 (midazolam) ([16]; substrate midazolam): 16.05 ± 1.91 µg/mL (≈ 47.4 µM)
- IC50, CYP3A4 (testosterone) ([16]; substrate testosterone): 6.78 ± 1.27 µg/mL (≈ 20 µM)
